Data from ChEMBL document CHEMBL1132959, “Design of potent dicyclic (1-5/4-10) gonadotropin releasing hormone (GnRH) antagonists” (J Med Chem, 2000).
Bridge positions count the residues as written; N and C are the ends. Square brackets hold non-standard residues; d marks the D form. Peptide text beside a SMILES is read from it. dPhe(4-F) = N[C@H](Cc1ccc(F)cc1)C(=O)O; d2Nal = N[C@H](Cc1ccc2ccccc2c1)C(=O)O; ΔPro = O=C(O)[C@@H]1C=CCN1; Dap = NC[C@H](N)C(=O)O

Columns and labels:
[1] = target: T1, Gonadotropin-releasing hormone receptor (Rattus norvegicus, UniProt P30969); test: Affinity for rat gonadotrophin releasing hormone (GnRH) receptor using HEK293 cells transfected with rat Gonadotropin-releasing hormone receptor; type: cell-based; settings: hek293
T1 sequence (P30969 whole entry): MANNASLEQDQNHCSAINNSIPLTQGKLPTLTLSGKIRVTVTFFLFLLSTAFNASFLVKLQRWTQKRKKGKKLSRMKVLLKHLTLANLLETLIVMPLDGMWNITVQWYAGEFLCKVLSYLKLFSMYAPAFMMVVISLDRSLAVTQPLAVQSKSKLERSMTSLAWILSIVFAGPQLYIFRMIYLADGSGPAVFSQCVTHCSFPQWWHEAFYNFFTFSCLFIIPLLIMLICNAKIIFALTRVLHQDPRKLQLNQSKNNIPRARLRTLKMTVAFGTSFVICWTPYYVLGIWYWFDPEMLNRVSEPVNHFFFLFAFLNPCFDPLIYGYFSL

[2] = species on record: Rattus norvegicus; test: Antiovulatory potency at 250 ug/rat expressed as rats ovulating by total no. of rats (3/3); type: functional
[3] = species on record: Rattus norvegicus; test: Antiovulatory potency at 10 ug/rat expressed as rats ovulating by total no. of rats (0/10); type: functional
[4] = species on record: Rattus norvegicus; test: Antiovulatory potency at 5 ug/rat expressed as rats ovulating by total no. of rats (3/20); type: functional
[5] = species on record: Rattus norvegicus; test: Antiovulatory potency at 50 ug/rat expressed as rats ovulating by total no. of rats (5/5); type: functional
[6] = species on record: Rattus norvegicus; test: Antiovulatory potency at 250 ug/rat expressed as rats ovulating by total no. of rats (5/6); type: functional
[7] = species on record: Rattus norvegicus; test: Antiovulatory potency at 25 ug/rat expressed as rats ovulating by total no. of rats (2/4); type: functional
[8] = species on record: Rattus norvegicus; test: Antiovulatory potency at 10 ug/rat expressed as rats ovulating by total no. of rats (0/5); type: functional
[9] = species on record: Rattus norvegicus; test: Antiovulatory potency at 50 ug/rat expressed as rats ovulating by total no. of rats (3/3); type: functional
[10] = species on record: Rattus norvegicus; test: Antiovulatory potency at 5 ug/rat expressed as rats ovulating by total no. of rats (2/3); type: functional
[11] = species on record: Rattus norvegicus; test: Antiovulatory potency at 100 ug/rat expressed as rats ovulating by total no. of rats (7/12); type: functional
[12] = species on record: Rattus norvegicus; test: Antiovulatory potency at 5 ug/rat expressed as rats ovulating by total no. of rats (4/10); type: functional
[13] = species on record: Rattus norvegicus; test: Antiovulatory potency at 10 ug/rat expressed as rats ovulating by total no. of rats (5/6); type: functional
[14] = species on record: Rattus norvegicus; test: Antiovulatory potency at 25 ug/rat expressed as rats ovulating by total no. of rats (7/8); type: functional
[15] = species on record: Rattus norvegicus; test: Antiovulatory potency at 50 ug/rat expressed as rats ovulating by total no. of rats (0/6); type: functional

Work on CC(=O)N[C@@H]1CC(=O)NCC(=O)NCC[C@H]2NC(=O)[C@@H](CC(=O)NC[C@H](C(N)=O)NC(=O)[C@H]3CCCN3C(=O)[C@H](CCCN=C(N)N)NC(=O)[C@@H](CC(C)C)NC(=O)[C@@H](Cc3cccnc3)NC2=O)NC(=O)[C@@H](Cc2cccnc2)NC(=O)[C@H](Cc2ccc(Cl)cc2)NC1=O yielded a Ki [1] of 1.6 nM and an Ovulating rats [2] of 3.
CC(=O)N[C@H](Cc1ccc2ccccc2c1)C(=O)N[C@H](Cc1ccc(F)cc1)C(=O)N[C@H](Cc1c[nH]c2ccccc12)C(=O)N[C@H]1CC(=O)NC[C@@H](C(N)=O)NC(=O)[C@@H]2CCCN2C(=O)[C@@H]2CCCCNC(=O)CC[C@H](NC1=O)C(=O)N[C@H](CCCN=C(N)N)C(=O)N[C@@H](CC(C)C)C(=O)N2 gave an Ovulating rats [3] of 0 and an Ovulating rats [4] of 3.
In the case of CC(=O)N[C@H](Cc1ccc2ccccc2c1)C(=O)N[C@H](Cc1ccc(Cl)cc1)C(=O)N[C@@H]1CSSC[C@@H](C(=O)N2CCC[C@H]2C(=O)N[C@H](C)C(N)=O)NC(=O)[C@H](CC(C)C)NC(=O)[C@@H](Cc2ccc3ccccc3c2)NC(=O)[C@H](CCCN=C(N)N)NC(=O)[C@H](C)NC1=O, the Ovulating rats [5] is reported as 5 and the Ovulating rats [6] is reported as 5.
In the case of CC(=O)N[C@@H]1CCC(=O)N[C@H](C)C(=O)NCC[C@H]2NC(=O)[C@@H](CC(=O)NC[C@H](C(N)=O)NC(=O)[C@H]3CCCN3C(=O)[C@H](CCCN=C(N)N)NC(=O)[C@@H](CC(C)C)NC(=O)[C@@H](Cc3ccc4ccccc4c3)NC2=O)NC(=O)[C@@H](Cc2c[nH]c3ccccc23)NC(=O)[C@H](Cc2ccc(Cl)cc2)NC1=O, the Ki [1] is reported as 0.22 nM, the Ovulating rats [7] is reported as 2 and the Ovulating rats [8] is reported as 0.
CC(=O)N[C@@H]1CCC(=O)NCC(=O)NCC[C@H]2NC(=O)[C@@H](CC(=O)NC[C@H](C(N)=O)NC(=O)[C@H]3CCCN3C(=O)[C@H](CCCN=C(N)N)NC(=O)[C@@H](CC(C)C)NC(=O)[C@@H](CCCN=C(N)N)NC2=O)NC(=O)[C@@H](Cc2c[nH]c3ccccc23)NC(=O)[C@H](Cc2ccc(Cl)cc2)NC1=O was tested, and the Ki [1] was 17 nM, the Ovulating rats [9] was 3 and the Ovulating rats [10] was 2.
For CC(=O)N[C@@H]1CSSC[C@H]2NC(=O)[C@@H](CC(=O)NC[C@H](C(N)=O)NC(=O)[C@H]3CCCN3C(=O)[C@H](CCCN=C(N)N)NC(=O)[C@@H](CC(C)C)NC(=O)[C@H](Cc3ccc4ccccc4c3)NC2=O)NC(=O)[C@@H](Cc2c[nH]c3ccccc23)NC(=O)[C@H](Cc2ccc(Cl)cc2)NC1=O, the Ki [1] was 5.7 nM and the Ovulating rats [11] was 7.
With CC(=O)N1CC=C[C@H]1C(=O)N[C@H](Cc1ccc(F)cc1)C(=O)N[C@H](Cc1c[nH]c2ccccc12)C(=O)N[C@H]1CC(=O)NC[C@@H](C(N)=O)NC(=O)[C@@H]2CCCN2C(=O)[C@H](CCCN=C(N)N)NC(=O)[C@H](CC(C)C)NC(=O)[C@@H](Cc2ccc3ccccc3c2)NC(=O)[C@H](Cc2ccc(O)cc2)NC1=O (Ac-[ΔPro][dPhe(4-F)][dW]DY[d2Nal]LRP[Dap]-NH2; lactam 4-10) the Ovulating rats [3] was 0 and the Ovulating rats [12] was 4.
CC(=O)N[C@@H]1CCC(=O)NCC(=O)NCCC[C@H]2NC(=O)[C@@H](CC(=O)NC[C@H](C(N)=O)NC(=O)[C@H]3CCCN3C(=O)[C@H](CCCN=C(N)N)NC(=O)[C@@H](CC(C)C)NC(=O)[C@@H](Cc3ccc4ccccc4c3)NC2=O)NC(=O)[C@@H](Cc2c[nH]c3ccccc23)NC(=O)[C@H](Cc2ccc(Cl)cc2)NC1=O gave a Ki [1] of 1.1 nM, an Ovulating rats [13] of 5 and an Ovulating rats [14] of 7. The Ovulating rats [15] was 0.
